Usually IC50 stands for the concentration at which inhibition is half-maximal. One may read the melting point as the temperature, or range, at which the solid turns liquid. In general, Ki refers to a dissociation constant, usually derived from enzyme kinetics or from competition with a known ligand. A high value points to weaker binding.

The target in series [1] is T1, human neutrophil elastase (HNE) (Homo sapiens, UniProt P08246).
T1 sequence (P08246 30-267): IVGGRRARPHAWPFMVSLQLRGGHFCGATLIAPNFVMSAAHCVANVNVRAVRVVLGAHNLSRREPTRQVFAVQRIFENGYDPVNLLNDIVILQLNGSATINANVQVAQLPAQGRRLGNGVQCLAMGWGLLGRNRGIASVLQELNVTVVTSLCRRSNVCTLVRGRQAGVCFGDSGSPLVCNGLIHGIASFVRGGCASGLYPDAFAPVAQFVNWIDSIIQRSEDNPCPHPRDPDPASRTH
Kind of series: Fluorometric human neutrophil elastase (HNE) inhibition assay, MOSuc-AAPV-AMC substrate. It counts as biochemical. As to conditions: HNE 20 mU/mL, 25 µM substrate, 0.1 M HEPES pH 7.5, 25 °C, triplicate; read-out: IC50 ± SD, elastase inhibitory activity. How it is done: Fluorometric assay for human neutrophil elastase (HNE) inhibition was performed according to the previously presented method with some modifications, using N-methoxysuccinyl-Ala-Ala-Pro-Val-7-amido-4-methyl-coumarin (MOSuc-AAPV-AMC, Calbiochem) as substrate. […] The reaction was carried out in assay buffer containing 0.1 M HEPES (pH 7.5). Briefly, different concentration of tested compounds was incubated with 20 mU/mL of HNE (Bradford) in 25 °C. The reaction was started by addition of 25 µM elastase substrate to final reaction volume 100 µL and monitored for 30 min at 25 °C on a microplate reader (FP-8500 Spectrofluorometer, JASCO, USA) with excitation and emission wavelengths of 380 nm and 440 nm, respectively. By computing the log of inhibitors concentrations versus the percentage of activity, the IC50 values were determined by non-linear regression analysis. Assays were performed in triplicate and data presented as the mean and the standard deviation. Ursolic acid was used as the reference compound.

Series [2] has as its system MV4-11 human biphenotypic B myelomonocytic leukemia cells. Kind of series: In vitro antiproliferative assay, MV4-11. The format is cell-based. As to conditions: for IC50: MV4-11, read-out: IC50 ± SD, antiproliferative activity; for SI BALB/3T3/ MV4-11: IC50 in normal cell line / IC50 in cancer cell line. How it is done:
(§1) Cell preparation, in vitro antiproliferative assay, MTT and SRB cytotoxic tests were performed according to literature.

The subject of series [3] is MDA-MB-231 human breast adenocarcinoma cells. In words: In vitro antiproliferative assay, MDA-MB-231. It counts as cell-based. As to conditions: for IC50: MDA-MB-231, read-out: IC50 ± SD, antiproliferative activity; for SI BALB/3T3/ MDA-MB-231: IC50 in normal cell line / IC50 in cancer cell line. How it is done: as §1
Series [4] can be described thus: Spontaneous hydrolysis (chemical stability) in phosphate buffer, spectrophotometric. The format is physicochemical. Conditions: 0.05 M phosphate buffer pH 7.3, 25 °C, λ 305 nm. How it is done: Spontaneous compound hydrolysis studies were performed following the literature procedure. The kinetics hydrolysis of the compounds was evaluated at 25 °C in 0.05 M phosphate buffer, pH 7.3, by measuring changes in absorbance spectra during incubation using a T60U spectrophotometer (PG Instruments). The absorbance (At) at characteristic absorption maxima for each compound was measured at 10 min intervals until there was no further decrease in absorbance (Aꝏ). Using these measurements, semilogarithmic plots of the dependence of log(At–Aꝏ) on time were prepared, and k’ values were determined from the slope of these plots according to the first order reaction kinetics. Half-conversion times were calculated using equation: t1/2 = 0.693/k’.

In series [5] the test system is A549 lung carcinoma cells. In words: In vitro antiproliferative assay, A549. It counts as cell-based, human. As to conditions: for IC50: A549, read-out: IC50 ± SD, antiproliferative activity; for SI BALB/3T3/ A549: IC50 in normal cell line / IC50 in cancer cell line. The method, then:
as §1

In series [6] the target is T1, human neutrophil elastase (HNE). In words: Kinetic analysis of the inhibition of elastase (Lineweaver–Burk, secondary plots). The format is biochemical. The method, then:
Kinetic studies were conducted in the presence of different concentrations of substrate (5, 25, 50 and 100 µM) and test compound (in the range of 0–10 µM). The reaction conditions were the same as in the HNE inhibition assay and the reaction was monitored for 10 min at 25 °C with the same Ex an Em wavelengths. By Lineweaver–Burk plots, kinetic values such as Michaelis–Menten constants and maximum velocity were determined. Next, two inhibition constants for inhibitor binding with free enzyme or enzyme–substrate complex (Ki and Kis) were obtained by plotting the secondary plot of the slopes of the determined straight lines or vertical intercept versus inhibitor concentration.

Series [7] deals with UMUC-3 human bladder transitional cell carcinoma cells. Kind of series: In vitro antiproliferative assay, UMUC-3. It counts as cell-based. As to conditions: for IC50: UMUC-3, read-out: IC50 ± SD, antiproliferative activity; for SI BALB/3T3/ UMUC-3: IC50 in normal cell line / IC50 in cancer cell line. How it is done: as §1
In series [8] the test system is BALB/3T3 normal mouse fibroblast cells. Kind of series: In vitro cytotoxicity on normal fibroblasts, BALB/3T3. The format is cell-based. Conditions: BALB/3T3 normal mouse fibroblasts; read-out: IC50 ± SD, antiproliferative activity. The method, then: as §1

Read-outs that look alike come from different tables or passages of the source.

As for `C[C@H]1[C@H](C)CC[C@]2(C(=O)O)CC[C@]3(C)C(=CC[C@@H]4[C@@]5(C)CC[C@H](O)C(C)(C)[C@@H]5CC[C@]43C)[C@H]12` [Ursolic acid, reference compound], the concentration for half-maximal inhibition (IC50) in [1] was found to be 5.32 ± 0.68 µM.
Consider `O=C1c2ccccc2C(=O)N1CCc1csc(Nc2ccc(C(F)(F)F)cc2)n1` [Compound 4c, 2-(2-(2-(4-(Trifluoromethyl)phenylamino)thiazol-4-yl)ethyl)isoindoline-1,3-dione], for which the melting point fell in the range of 170 to 172 °C. In [1], the concentration for half-maximal inhibition (IC50) is 13 µM. Besides, the concentration for half-maximal inhibition (IC50) in series [2] (Homo sapiens) was found to be 46.6 ± 25.4 µM. Further, the “SI BALB/3T3/ MV4-11” value in series [2] amounted to 1.82. Moreover, the half-maximal inhibitory concentration (IC50) in [3] (Homo sapiens) is 77.5 ± 13.7 µM. Also, in [3], the “SI BALB/3T3/ MDA-MB-231” value worked out at 1.10. In addition, in series [4], the “k, rate constant of spontaneous hydrolysis” value was 0.018 min⁻¹. The half-life in [4] (read-out: t1/2, half-life for the spontaneous hydrolysis) was found to be 38.5 min. In addition, the IC50 in series [5] (Homo sapiens) came to 14 ± 1.56 µM. In series [5], the “SI BALB/3T3/ A549” value came to 6.07. Also, the “Inhibition Type” value in series [6] (Lineweaver–Burk and Dixon analysis) is given as “mixed type I inhibition”. For the same compound, the affinity in series [6] (inhibitor binding with free enzyme, secondary plot) corresponds to a Ki of 4.54 µM. Moreover, the IC50 in series [7] (Homo sapiens, UMUC3) is 75.2 ± 6.71 µM. For the same compound, the “SI BALB/3T3/ UMUC-3” value in series [7] is given as 1.13. The IC50 in series [8] is 84.9 ± 18.2 µM.
On to `O=C1c2ccccc2C(=O)N1CCc1csc(Nc2c(Cl)cc(Cl)cc2Cl)n1` [Compound 4h, 2-(2-(2-(2,4,6-Trichlorophenylamino)thiazol-4-yl)ethyl)isoindoline-1,3-dione], for which the melting point lay within 168 to 169 °C. Also, the half-maximal inhibitory concentration (IC50) in series [1] is 16.6 ± 2.06 µM. The half-inhibitory concentration (IC50) in series [2] (Homo sapiens) turned out to be 48.5 ± 21.4 µM. For the same compound, the IC50 in series [5] (Homo sapiens) is 57.1 ± 19.4 µM. For the same compound, the half-inhibitory concentration (IC50) in series [7] (Homo sapiens, UMUC3) was found to be 120 ± 36 µM.
The compound `O=C1c2ccccc2C(=O)N1CCc1csc(Nc2cccc3ccccc23)n1` [Compound 4e, 2-(2-(2-(Naphthalen-1-ylamino)thiazol-4-yl)ethyl)isoindoline-1,3-dione] displayed a melting point of 161 to 162 °C. Also, the IC50 in [1] turned out to be 15.6 ± 0.16 µM. The half-maximal inhibitory concentration (IC50) in series [2] (Homo sapiens) turned out to be 33.2 ± 12 µM. Also, in series [2], the “SI BALB/3T3/ MV4-11” value turned out to be 3.09. Further, in [3] (Homo sapiens), the IC50 stood at 76.4 ± 11.1 µM. In [3], the “SI BALB/3T3/ MDA-MB-231” value came to 1.34. Besides, the IC50 in series [5] (Homo sapiens) came out at 41.1 ± 3.13 µM. For the same compound, the “SI BALB/3T3/ A549” value in [5] was 2.50. Besides, the IC50 in [7] (Homo sapiens, UMUC3) is 80 ± 16.2 µM. Further, the “SI BALB/3T3/ UMUC-3” value in series [7] turned out to be 1.28. In addition, the concentration for half-maximal inhibition (IC50) in [8] amounted to 103 ± 30.7 µM.
On to `O=C1c2ccccc2C(=O)N1CCc1csc(Nc2ccc(F)cc2)n1` [Compound 4a, 2-(2-(2-(4-Fluorophenylamino)thiazol-4-yl)ethyl)isoindoline-1,3-dione], for which the concentration for half-maximal inhibition (IC50) is 29.4 ± 3.13 µM in series [1]; 59.6 ± 4.63 µM in [2] (Homo sapiens); 110 ± 24.5 µM in series [3] (Homo sapiens); 50.7 ± 3.32 µM in series [5] (Homo sapiens); 82.3 ± 2.18 µM in [7] (Homo sapiens, UMUC3); 74.2 ± 12.2 µM in [8].
As for `CC(=O)c1ccc(Nc2nc(CCN3C(=O)c4ccccc4C3=O)cs2)cc1` [Compound 4i, 2-(2-(2-(4-Acetylphenylamino)thiazol-4-yl)ethyl)isoindoline-1,3-dione], the 50% inhibitory concentration (IC50) was 25.6 ± 1.78 µM in series [1]; 44.5 ± 20.2 µM in series [2] (Homo sapiens); 87.7 ± 22 µM in [3] (Homo sapiens); 62.9 ± 5.75 µM in [5] (Homo sapiens); 74.1 ± 12 µM in [7] (Homo sapiens, UMUC3); 99 ± 21.2 µM in series [8].
Take `NS(=O)(=O)c1ccc(Nc2nc(CCN3C(=O)c4ccccc4C3=O)cs2)cc1` [Compound 4g, 4-(4-(2-(1,3-Dioxoisoindolin-2-yl)ethyl)thiazol-2-ylamino)benzenesulfonamide]: the melting point was more than 260 °C. In [1], the IC50 came out at 64.9 ± 7.75 µM. Besides, the half-maximal inhibitory concentration (IC50) in series [2] (Homo sapiens) was 83.3 ± 26.6 µM. The “SI BALB/3T3/ MV4-11” value in series [2] stood at 0.17. Moreover, in series [3] (Homo sapiens), the IC50 was determined as 9.66 ± 1.4 µM. In addition, the “SI BALB/3T3/ MDA-MB-231” value in series [3] worked out at 1.49. Further, the half-inhibitory concentration (IC50) in [7] (Homo sapiens, UMUC3) is 19.8 ± 1.4 µM. Further, the “SI BALB/3T3/ UMUC-3” value in [7] is 0.72. Besides, in [8], the IC50 is 14.3 ± 2.1 µM.
Turning to `COc1cc(Nc2nc(CCN3C(=O)c4ccccc4C3=O)cs2)cc(OC)c1OC` [Compound 4d, 2-(2-(2-(3,4,5-Trimethoxyphenylamino)thiazol-4-yl)ethyl)isoindoline-1,3-dione], the concentration for half-maximal inhibition (IC50) in series [1] turned out to be 22.9 ± 1.59 µM; in series [2] (Homo sapiens), 8.21 ± 2.37 µM; in [3] (Homo sapiens) it was 48.9 ± 13.2 µM; in series [5] (Homo sapiens), 23.7 ± 5.23 µM; in series [7] (Homo sapiens, UMUC3) it was 46.1 ± 7.28 µM; in series [8] it was 46.8 ± 2.05 µM.
With `Cc1cc(C)cc(Nc2nc(CCN3C(=O)c4ccccc4C3=O)cs2)c1` [Compound 4f, 2-(2-(2-(3,5-Dimethylphenylamino)thiazol-4-yl)ethyl)isoindoline-1,3-dione], the half-maximal inhibitory concentration (IC50) turned out to be 49.9 ± 0.98 µM in [1]; 13.2 ± 4.77 µM in series [2] (Homo sapiens); 86.4 ± 12.2 µM in series [3] (Homo sapiens); 25.6 ± 3.63 µM in series [5] (Homo sapiens); 66.5 ± 9.8 µM in [7] (Homo sapiens, UMUC3); 101 ± 12.2 µM in series [8].
For `O=C1c2ccccc2C(=O)N1CCc1csc(Nc2ccc(Cl)cc2)n1` [Compound 4b, 2-(2-(2-(4-Chlorophenylamino)thiazol-4-yl)ethyl)isoindoline-1,3-dione], the concentration for half-maximal inhibition (IC50) came to 46.5 ± 4.85 µM in [1]; 12.2 ± 4.56 µM in series [2] (Homo sapiens); 86.5 ± 10.7 µM in [3] (Homo sapiens); 18.1 ± 0.94 µM in [5] (Homo sapiens); 61.7 ± 1.56 µM in series [7] (Homo sapiens, UMUC3); 66.2 ± 4.17 µM in series [8].
In the case of `N.N.[Cl][Pt][Cl]` [cisplatin, reference compound], the IC50 stood at 1.43 ± 0.4 µM in series [2]; 15.6 ± 2 µM in [3]; 5.41 ± 0.6 µM in series [5]; 1.73 ± 0.17 µM in series [7]; 8.47 ± 1.96 µM in series [8].

(Values after PMC9820738, “Spectrofluorimetric and Computational Investigation of New Phthalimide Derivatives towards Human Neutrophil Elastase Inhibition and Antiproliferative Activity” (International Journal of Molecular Sciences, 2022).)
